What was measured:
[1] = system: γδ T-cells; assay: γδ T cell stimulation assay (PBMCs, FACS Vδ2 TCR/CD3 double staining); type: cell-based, human; conditions: for γδ T cell stimulation compared to IPP: at a concentration 200-fold lower than the concentration of the IPP sample; for % γδ T-cells: seven days
Experimental: PBMCs from healthy donors (donor A and donor B) are isolated from heparinized peripheral blood by density centrifugation over Ficoll-Hypaque (Amersham Pharmacia Biotech, Freiburg, Germany). […] Amounts of recombinant human IL-2 (kindly provided by Eurocetus, Amsterdam, The Netherlands) and substrates are varied from 1 to 10 U and 10 to 0.1 μM, respectively. 20 μM IPP (Echelon, Research Laboratories Inc., Salt Lake City, USA) serves as a positive control whereas medium alone serves as negative control. Incubation is done for seven days at 37° C. in the presence of 7% CO2. The harvested cells are double-stained with fluorescein isothiocyanate (FITC)-conjugated mouse anti-human monoclonal antibody Vδ2 TCR and phycoerythrin (PE)-conjugated monoclonal CD3 antibody. The cells are analyzed using a FACScan supported with Cellquest (Becton Dickinson, Heidelberg, Germany).
The substrates (E)-1-hydroxy-3-methyl-but-2-enyl 4-diphosphate (HMBPP) and 3-formyl-but-2-enyl 1-diphosphate (Aldehyde) were prepared synthetically as described above.

[2] = molecular target: T1, IspH (LytB) (Escherichia coli, UniProt P62623); assay: Screening of IspH (LytB) activity, crude cell extract, radio-HPLC; type: biochemical
T1 construct: 20 μl of crude cell extract of M15-pMALlytB cells; made in house; host or cells: E. coli M15 harbouring pMALlytB (crude cell extract)
T1 sequence (P62623 whole entry): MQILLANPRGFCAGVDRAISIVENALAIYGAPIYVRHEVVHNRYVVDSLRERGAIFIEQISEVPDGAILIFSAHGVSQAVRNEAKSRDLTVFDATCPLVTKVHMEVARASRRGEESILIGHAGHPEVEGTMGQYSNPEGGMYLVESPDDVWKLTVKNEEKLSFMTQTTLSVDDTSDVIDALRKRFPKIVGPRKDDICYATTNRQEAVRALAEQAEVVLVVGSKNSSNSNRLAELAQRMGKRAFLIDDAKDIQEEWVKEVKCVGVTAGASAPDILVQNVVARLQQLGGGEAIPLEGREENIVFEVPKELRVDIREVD

[3] = system: Capsicum annuum chromoplasts; assay: Incorporation into the lipid soluble fraction of chromoplasts; type: biochemical; conditions: [2-14C] label, 8.8 nmol, 30° C. overnight
Experimental: Chromoplasts are isolated by a slight modification of a method described by Camara (Camara, 1985; Camara, 1993). Pericarp of red pepper (650 g) is homogenized at 4° C. in 600 ml of 50 mM Hepes, pH 8.0, containing 1 mM DTE, 1 mM EDTA and 0.4 M sucrose (buffer A). The suspension is filtered through four layers of nylon cloth (50 μm) and centrifuged (10 min, 4,500 rpm, GSA rotor) to obtain a pellet of crude chromoplasts which is homogenized in 200 ml of buffer A. The suspension is centrifuged (10 min, 4,500 rpm, GSA rotor). The pellet is homogenized and resuspended in 3 ml of 50 mM Hepes, pH 7.6, containing 1 mM DTE. The suspension is filtered through one layer of nylon cloth (50 μm).
Reaction mixtures contain 100 mM Hepes, pH 7.6, 2 mM MnCl2, 10 mM MgCl2, 5 mM NaF, 2 mM NADP^+, 1 mM NADPH, 6 mM ATP, 20 μM FAD and 2 mg of chromoplasts. 8.8 nmol of [2-^14C]2C-methyl-D-erythritol 2,4-cyclodiphosphate, [2-^14C]1-hydroxy-2-methyl-2-(E)-butenyl diphosphate or [2-^14C]isopentenyl diphosphate (specific […] 15.8 μCi/μmol) are added and the mixtures are incubated at 30° C. overnight. The reaction is terminated by methylene chloride extraction. The organic phase is concentrated under a stream of nitrogen. […] The chromatograms are monitored with a phosphor imager (Storm 860, Molecular dynamics, Sunnyvale, Calif., USA). […]

[4] = molecular target: T2, IspG (GcpE) (Escherichia coli, UniProt P62620); assay: Screening of IspG (GcpE) enzyme activity, crude cell extract of XL1-pACYClytBgcpE, radio-HPLC; type: biochemical; conditions: after 10 minutes of incubation at 37° C., NADH, CoCl2, pamidronate
T2 construct: 100 μl crude cell extract of XL1-pACYClytBgcpE; made in house; host or cells: E. coli XL1-Blue harbouring pACYClytBgcpE (crude cell extract)
T2 sequence (P62620 whole entry): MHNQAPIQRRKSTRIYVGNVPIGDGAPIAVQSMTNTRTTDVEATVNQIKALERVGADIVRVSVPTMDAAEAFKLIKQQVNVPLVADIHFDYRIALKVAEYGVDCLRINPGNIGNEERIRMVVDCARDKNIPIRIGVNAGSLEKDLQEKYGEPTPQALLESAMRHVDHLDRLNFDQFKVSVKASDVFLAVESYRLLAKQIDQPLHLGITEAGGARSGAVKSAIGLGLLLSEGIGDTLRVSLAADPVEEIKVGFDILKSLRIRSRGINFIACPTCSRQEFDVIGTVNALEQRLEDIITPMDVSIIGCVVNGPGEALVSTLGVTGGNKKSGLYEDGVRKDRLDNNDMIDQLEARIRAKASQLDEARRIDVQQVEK
Experimental: 0.2 g cells of XL1-pACYClytBgcpE are suspended in 1 ml 50 mM Tris hydrochloride, pH 7.4 and 2 mM DTT, cooled on ice and sonified 3×7 sec with a Branson Sonifier 250 (Branson SONIC Power Company) set to 80% duty cycle output, control value of 4 output. The suspension is centrifuged at 14000 rpm for 15 minutes. The supernatant is used as crude cell extract in assays described as follows.
The assay mixture contains 100 mM Tris hydrochloride, pH 7.4, 1.2 mM dithiothreitol, 10 mM NaF, 1 mM CoCl2, 2 mM NADH, 20 mM (18 μCi mol^−1) [2-^14C[…]2C-methyl-erythritol 2,4-cyclodiphophate, 0.5 mM pamidronate and 100 μl crude cell extract of XL1-pACYClytBgcpE in a total volume of 150 μl. The mixture is incubated for 10 to 45 min at 37° C. and cooled on ice. 10 μl of 30% (g/v) trichloroacetic acid are added and the mixture is neutralized with 20 μl of 1 M NaOH.
The mixture is centrifuged at 14.000 rpm for 10 minutes. Aliquotes of 130 μl of the supernatant are analyzed by reversed-phase ion-pair HPLC using a column of Multospher 120 RP 18-AQ-5 (4.6×250 mm, CS-Chromatographie Service GmbH, Langerwehe, Germany). […] The effluent is monitored by a continuous-flow radio detector (Beta-RAM, Biostep GmbH, Jahnsdorf, Germany). […]

[5] = substrate 0.1 μM, IL-2 1 U, Donor A
[6] = substrate 0.1 μM, IL-2 1 U, Donor B
[7] = substrate 0.1 μM, IL-2 5 U, Donor A
[8] = substrate 0.1 μM, IL-2 5 U, Donor B
[9] = substrate 0.1 μM, IL-2 10 U, Donor A
[10] = substrate 0.1 μM, IL-2 10 U, Donor B
[11] = substrate 1 μM, IL-2 1 U, Donor A
[12] = substrate 1 μM, IL-2 1 U, Donor B
[13] = substrate 1 μM, IL-2 5 U, Donor A
[14] = substrate 1 μM, IL-2 5 U, Donor B
[15] = substrate 1 μM, IL-2 10 U, Donor A
[16] = substrate 1 μM, IL-2 10 U, Donor B
[17] = substrate 10 μM, IL-2 1 U, Donor A
[18] = substrate 10 μM, IL-2 1 U, Donor B
[19] = substrate 10 μM, IL-2 5 U, Donor A
[20] = substrate 10 μM, IL-2 5 U, Donor B
[21] = substrate 10 μM, IL-2 10 U, Donor A
[22] = substrate 10 μM, IL-2 10 U, Donor B

Row | Molecule | γδ T cell stimulation compared to IPP [1] | % γδ T-cells [1, 5] [%] | % γδ T-cells [1, 6] [%] | % γδ T-cells [1, 7] [%] | % γδ T-cells [1, 8] [%] | % γδ T-cells [1, 9] [%] | % γδ T-cells [1, 10] [%] | % γδ T-cells [1, 11] [%] | % γδ T-cells [1, 12] [%] | % γδ T-cells [1, 13] [%] | % γδ T-cells [1, 14] [%] | % γδ T-cells [1, 15] [%] | % γδ T-cells [1, 16] [%] | % γδ T-cells [1, 17] [%] | % γδ T-cells [1, 18] [%] | % γδ T-cells [1, 19] [%] | % γδ T-cells [1, 20] [%] | % γδ T-cells [1, 21] [%] | % γδ T-cells [1, 22] [%] | further results
1 | C/C(=C\COP(=O)(O)OP(=O)(O)O)CO [HMBPP, (E)-1-hydroxy-3-methyl-but-2-enyl 4-diphosphate] | at least double stimulation compared to IPP | 11.78 | 32.21 | 22.92 | 44.69 | 34.69 | 36.33 | 5.57 | 35.34 | 14.4 | 54.12 | 19.85 | 55.90 | 3.3 | 31.42 | 17.38 | 63.48 | 24.94 | 63.34 | HPLC peak of substrate; conversion into DMAPP and IPP ([2]; crude cell extract of E. coli M15-pMALlytB cells, 30 min at 37° C., NADH, FAD, pamidronate): completely diminished; conversion into DMAPP and IPP ([2]; crude cell extract of E. coli wild-type as protein source): No conversion; radioactivity diverted into geranylgeraniol, carotene, phytoene and phytofluene fractions [3]: efficiently diverted
2 | C[C@@]1(CO)OP(=O)(O)OP(=O)(O)OC[C@H]1O [2C-methyl-erythritol 2,4-cyclodiphophate, 2C-methyl-D-erythritol 2,4-cyclodiphosphate] | – | – | – | – | – | – | – | – | – | – | – | – | – | – | – | – | – | – | – | substrate converted into 1-hydroxy-2-methyl-2-(E)-butenyl-4-diphosphate and DMAPP/IPP [4]: about 13%
3 | C=C(C)CCO[P@@](=O)(O)OP(=O)(O)O [IPP, isopentenyl diphosphate, reference compound] | – | 1.3 | 2.15 | 1.3 | 2.26 | 1.01 | 2.54 | 1.56 | 2.22 | 1.59 | 2.67 | 1.71 | 2.19 | – | – | – | – | – | – | % γδ T-cells ([1]; substrate 20 μM, IL-2 1 U, Donor A): 8.19%; % γδ T-cells ([1]; substrate 20 μM, IL-2 1 U, Donor B): 6.24%; % γδ T-cells ([1]; substrate 20 μM, IL-2 5 U, Donor A): 14.42%; % γδ T-cells ([1]; substrate 20 μM, IL-2 5 U, Donor B): 9.32%; % γδ T-cells ([1]; substrate 20 μM, IL-2 10 U, Donor A): 16.6%; % γδ T-cells ([1]; substrate 20 μM, IL-2 10 U, Donor B): 11.86%
4 | (E)-3-formyl-but-2-enyl 1-diphosphate [Aldehyde] | at least double stimulation compared to IPP | 10 | 13.54 | 19.77 | 18.45 | 21.93 | 25.82 | 15.91 | 21.18 | 40.13 | 30.76 | 48.28 | 36.69 | 12.19 | 30.69 | 34.69 | 30.33 | 38.99 | 38.85 | –

From US20080318227A1, “Intermediates and enzymes of the non-mevalonate isoprenoid pathway” (priority 2001, published 2008)
